In the METLIN SMRT retention time set (Domingo-Almenara et al. 2019):

Experiment: gradient 5% acetonitrile 3 min, to 50% in 2 min, to 85% in 15 min, held 3 min, 100 µL/min
Settings: column: Zorbax Extend-C18 2.1 x 50 mm; eluents: water / acetonitrile, 0.1% formic acid
How it was run: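 Pure standards were run in mixtures of ~100 molecules by HPLC coupled to a quadrupole time-of-flight mass spectrometer. The column was a Zorbax Extend-C18 (2.1 × 50 mm, 1.8 μm) at 100 μL/min, with water and acetonitrile each containing 0.1% formic acid, in positive and negative ionization mode. Dead and dwell volumes were 40 μL and 900 μL. Retention time was taken from computationally picked adduct peaks, each manually inspected, with data collected over 3 months.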

| RP-LC retention time [s] | SMILES |
| --- | --- |
| 859 | O=C(Nc1ccc(Cl)cc1)C1CCN(C(=O)c2ncn3c2COC(c2ccccc2)C3)CC1 (stereo not drawn) |
| 970 | Cc1ccc2ncn(C3CCN(S(=O)(=O)c4ccc(Cl)cc4)CC3)c(=O)c2c1 |
| 923 | Cc1nc(-c2cccs2)c(CCC(=O)Nc2ccccc2C(F)(F)F)s1 |
| 681 | CNC(=O)C1CCCN(c2nc3ncn(CC(=O)NCCc4ccc(Cl)cc4)c(=O)c3s2)C1 (stereo not drawn) |
| 1030 | Cn1cc2c3c(cccc31)CN(C(=O)c1ccc(Br)cc1)CC2 |
| 672 | CC(=O)N1CCc2ccccc2C1C(=O)NC(C)C (stereo not drawn) |
| 740 | CCN1CCCn2cc(S(=O)(=O)Nc3ccc(OC)c(Cl)c3)cc2C1=O |
| 629 | Cc1ccc(C(=O)N2CCN(c3nc(CN4CCOCC4)cs3)CC2)cc1F |
| 856 | CC(C)NC(=O)CCn1c(=O)c2cc(Cl)ccc2n2c(=O)n(Cc3ccccc3)nc12 |
| 643 | Cc1c(C(=O)N2CCOc3ccc(-c4ccc(N)nc4)cc3C2)ccc(S(C)(=O)=O)c1F |
| 822 | CCN1c2ccc(F)cc2C(=O)NC12CCN(C(=O)c1ccc(F)c(F)c1)CC2 |
| 785 | COc1ccc(S(=O)(=O)N2CC3CN(C(=O)c4cc(C)oc4C)CC(C2)O3)cc1 |
| 710 | Cc1ccc(C)c(C(=O)N2C[C@@H](F)C[C@H]2C(=O)N2CCCCC2)c1 |
| 883 | O=C(Nc1ccc(OCc2nnc(-c3ccccc3)o2)cc1)c1cncc(Br)c1 |
| 778 | CC1=C(c2ccccc2)S(=O)(=O)N=C1N1CCCN(C(=O)NC2CCCC2)CC1 |
| 845 | CCC(=O)Oc1cccc(N2C(=O)c3cccc([N+](=O)[O-])c3C2=O)c1 |
| 648 | COc1ccc(NC(=O)CSc2nnc3c4cc(-c5ccc(F)cc5)nn4ccn23)c(OC)c1 |
| 767 | Cc1ccc(F)cc1NC(=O)Cn1nc2cc(-c3ccccn3)nc(C)n2c1=O |
| 815 | COc1ccc(Cc2nnc3sc(Cc4ccc(OC)c(OC)c4)nn23)cc1 |
| 586 | CCCN1CCN(C(=O)CC(C)S(=O)(=O)c2ccc3c(c2)CCN3C(C)=O)CC1 (stereo not drawn) |
| 1130 | COc1ccc(OC)c(NS(=O)(=O)c2cc(-c3cc(C(F)(F)F)on3)sc2C)c1 |
| 847 | Fc1ccc(-c2nc3ncccn3c2Nc2ccc(Cl)cc2)cc1 |

| RP-LC retention time [s] | SMILES |
| --- | --- |
| 728 | CSc1nnc(-c2nn(C)c3c2CN(C(=O)c2c(F)cccc2Cl)CC3)n1C |
| 1040 | Cc1ccc(-c2cc(C(=O)N(C)Cc3ccccc3)c(C)[nH]2)cc1C |
| 1020 | Cc1ccc(-c2noc(CN3N=NC4C(=O)N(c5ccccc5)C(=O)C43)n2)cc1C (stereo not drawn) |
| 966 | Cc1ccc(-c2cn3c(CC(=O)Nc4ccc(Cl)cc4F)csc3n2)cc1C |
| 912 | Cc1nc(-c2ccc3c(c2)n(CC(=O)NC2CCCc4ccccc42)c(=O)n3C(C)C)no1 (stereo not drawn) |
| 1010 | CCN1C(=O)c2cc(S(=O)(=O)Nc3ccc(F)cc3C)ccc2Oc2cccnc21 |
| 933 | CCc1nn(C)c(=O)c2cc(S(=O)(=O)NCc3ccc(F)c(Cl)c3)cn12 |
| 588 | CCCCOc1ccc(C(=O)NCCc2cn3ccc(C)cc3n2)cc1 |
| 826 | O=C(Nc1ccc(F)c(Cl)c1)C1CCN(C(=O)C2Sc3ccccc3NC2=O)CC1 (stereo not drawn) |
| 829 | COc1ccc(OC)c(Nc2c(-c3ccc4c(c3)OCO4)nc3cnccn23)c1 |
| 884 | CN(C)C(=O)c1csc(N2CCN(c3ccccc3F)CC2)n1 |
| 661 | Cc1cc2n(n1)CCC(=O)N2CCCC(=O)NC1CCCCC1 |
| 582 | CN1CCN(c2c3c(nc4nc(-c5ccccc5)nn24)CCCC3)CC1 |
| 720 | CCC(=O)N1CCc2cc(N3CC(C(=O)Nc4ccc(OC)cc4C)CC3=O)ccc21 (stereo not drawn) |
| 726 | CC(=O)Nc1nc(-c2ccc3c(c2)N(C)C(=O)CO3)c(C)s1 |
| 748 | Cc1ccc(-n2nc3c(N4CCCC(C(=O)NCCc5cccs5)C4)nnc(C)c3c2C)cc1 (stereo not drawn) |
| 794 | O=C(Nc1ccnn1Cc1cccs1)c1ccccc1Br |
| 610 | Cc1ccc(Nc2nc(NCCO)c3cnn(C)c3n2)cc1C |
| 952 | N#Cc1ccc(NC(=O)Cn2cccc(-c3nc(-c4ccc(Br)cc4)no3)c2=O)cc1 |
| 754 | Cc1nnc(-c2ccc3ccn(CC(=O)NCCC(C)C)c3c2)o1 |
| 588 | CCN1CCCC1CN(CC(=O)N1CCNCC1)S(=O)(=O)c1cc(C)c(C)cc1C (stereo not drawn) |
| 787 | Cc1ccc(OCC(=O)Nc2cc3c(cc2N2CCOCC2)n(C)c(=O)c(=O)n3C)c(C)c1 |

| RP-LC retention time [s] | SMILES |
| --- | --- |
| 710 | O=C(CCn1ccc2cc(S(=O)(=O)N3CCCCCC3)ccc21)N1CCN(c2ccccn2)CC1 |
| 867 | Cc1ccc(N2CCN(C(=O)c3ccc(Cn4cncn4)cc3)CC2)c(C)c1 |
| 725 | CC(C)(C)C(=O)OCOP(=O)(COCCn1cnc2c(N)ncnc21)OCOC(=O)C(C)(C)C |
| 567 | CCOc1cc2c(cc1OCC)C1C(C(=O)N3CCN(C)CC3)c3ccccc3C(=O)N1CC2 (stereo not drawn) |
| 893 | COc1ccc(CCNC(=O)C2CCN(S(C)(=O)=O)c3cc(C)ccc3O2)cc1 (stereo not drawn) |
| 796 | CCn1c(C2CCN(S(=O)(=O)c3ccc(Cl)cc3)C2)nc2cccnc21 (stereo not drawn) |
| 753 | COc1ccc(NC(=O)C2CCCN(c3ncnc4c3nc3n4CCCCC3)C2)cc1 (stereo not drawn) |
| 1230 | c1ccc(-c2nc3cc(-c4noc(C5CC5)n4)ccc3o2)cc1 |
| 784 | CCc1ccccc1S(=O)(=O)N1CCC(n2cnnc2C(C)C)CC1 |
| 620 | Cc1cc(C)n(-c2ccc(N3CCN(C(=O)c4ccc(S(N)(=O)=O)cc4)CC3)nn2)n1 |
| 781 | CSc1ccccc1NC(=O)C(=O)NCCn1nc(-c2ccco2)ccc1=O |
| 676 | O=C(C1CCCC1)N1CCCCC1c1nc(C2CC2)n[nH]1 (stereo not drawn) |
| 855 | Cc1ccc(Nc2c(-c3ccc(N(C)C)cc3)nc3cnccn23)cc1 |
| 1190 | CCc1nc2cc(-c3noc(Cc4ccc(OC)cc4Cl)n3)ccc2o1 |
| 752 | CCOc1c(C)cc(S(=O)(=O)NCC(C)(O)COC)cc1C (stereo not drawn) |
| 837 | O=C(O)C1CCN(c2nc3ccc(-c4cccs4)nc3s2)CC1 |
| 893 | O=C(Cc1cccs1)Nc1cnc(-c2ccccc2)nc1 |
| 740 | Cc1cc(C(=O)Nc2nc3ccc(S(=O)(=O)N(C)C)cc3s2)on1 |
| 739 | CC(C)(C)C(O)CCNC(=O)NCc1ccc(Cl)cc1 (stereo not drawn) |
| 837 | CC(=O)Nc1ccc(-c2noc(C3CCN(C(=O)C4(c5ccccc5)CC4)CC3)n2)cc1 |
| 1310 | CCCN(CCC)S(=O)(=O)c1ccc(C(=O)Nc2nc3c(s2)CCc2ccccc2-3)cc1 |
| 890 | CCOC(=O)Nc1cccc(C(F)(F)F)c1 |

| RP-LC retention time [s] | SMILES |
| --- | --- |
| 884 | Cc1ccsc1C(=O)Nc1ccc(-c2nc(Cn3cccn3)c(C)o2)cc1 |
| 885 | O=S(=O)(c1ccc2nncn2c1)N(Cc1ccccc1Cl)c1ccccc1 |
| 579 | Cn1nc(C(=O)N2CCCC2)c2c1CCN(C(=O)CCC(=O)N1CCN(c3ccccn3)CC1)C2 |
| 1020 | Cc1noc(-c2cc(=O)n(CC(=O)Nc3ccc(C(C)C)cc3)c3ccccc23)n1 |
| 758 | COc1ccccc1-n1nnc(C(=O)Nc2nc(C)cs2)c1-c1ccccn1 |
| 1090 | Cc1ccc(-c2noc(-c3nc(-c4ccccn4)no3)n2)cc1 |
| 1020 | COc1ccccc1NC(=O)Cn1nc2cc(C)nc(Nc3ccccc3)n2c1=O |
| 652 | O=C(c1cn2ccccc2n1)N1CCN(c2ccccc2F)CC1 |
| 689 | Cc1nc(C(=O)NCCc2ccc(Cl)cc2)c(C)n1C1CCN(S(C)(=O)=O)CC1 |
| 874 | CCCS(=O)(=O)N1CCCN(C2=NS(=O)(=O)C(c3ccc(C)cc3)=C2C)CC1 |
| 854 | CCOC(=O)c1cn(Cc2ccc(F)cc2)c2nc(C)ccc2c1=O |
| 647 | Cc1noc(C)c1S(=O)(=O)N1CCCCC1c1nncn1C (stereo not drawn) |
| 701 | CN1CCN(c2nc(Nc3ccc4c(c3)OCO4)c3cnn(-c4ccccc4)c3n2)CC1 |
| 880 | Cc1ccc(-n2c(N3CCCC(C(=O)NCc4cccs4)C3)nc3ccsc3c2=O)cc1 (stereo not drawn) |
| 844 | COc1cccc(CNC(=O)CN2CCN(Cc3ccc(F)cc3Cl)C2=O)c1 |
| 1070 | CCOC(=O)c1noc2nc(C)nc(N3CCN(c4ccc(F)cc4)CC3)c12 |
| 623 | CCn1ccc(-c2nc(-c3ccc4c(c3)nnn4CCN3CCCCC3)no2)n1 |
| 1290 | Cc1nn(-c2nc(-c3ccc(Cl)cc3)cs2)c(C)c1CC(=O)N1CCN(c2ccccc2)CC1 |
| 687 | COc1ccc(CN(Cc2ccccc2)Cc2cc(=O)n3cc(Cl)ccc3n2)cc1OC |
| 551 | N#Cc1cccc(CN2CCC(F)(F)C(CO)C2)c1 (stereo not drawn) |
| 840 | Cc1ccc(F)cc1NS(=O)(=O)c1cc2n(c1)CCN(CC(C)C)C2=O |

| SMILES | RP-LC retention time [s] |
| --- | --- |
| N#CC(C#N)=Cc1ccc(O)c(O)c1 | 841 |
